# Columns and labels:
# Type in all cases: physicochemical
# [1] = pH stability studies under accelerated conditions
# Description: (§1) The physio-chemical properties of ON 01210.Na, as an exemplary efficacious radiation protectant drug, were determined in order to evaluate appropriate formulation approaches for development of a safe, reliable and effective parenteral formulation of this compound and other radioprotective α,β-unsaturated arylsulfones. Evaluation studies included microscopic studies, partition coefficient, pKa, pH solubility studies, pH stability studies under accelerated conditions, solid state characterization of the drug substance, and solid state stability of drug substance under accelerated conditions. […] This drug was reasonably stable in an aqueous environment at biological pH. Therefore, it was determined that ON 01210.Na could be formulated as a shelf stable parenteral formulation.
# [2] = octanol:water partition coefficient (preformulation study)
# Description: as §1
# [3] = accelerated solid-state stability study of the bulk drug substance
# Description: as §1
smiles,measurement,setting,value
"O=C([O-])c1ccc(/C=C/S(=O)(=O)Cc2ccc(Cl)cc2)cc1.[Na+] [ON 01210.Na, (E)-4-Carboxystyryl-4-chlorobenzylsulfone, Sodium Salt]",degradation rate order,[1],pseudo-first-order
same,"pH-stability profile, degradation",[1]; acidic conditions,rapid
same,pH-stability profile,[1]; neutral and biological pH,better stability
same,octanol:water partition coefficient,[2],1.28-2.87
same,accelerated solid-state stability,[3],no evidence of degradation

# — patent US9060967B2, “Stable aqueous formulation of (E)-4-carboxystyryl-4-chlorobenzyl sulfone” (ONCONOVA THERAPEUTICS, INC, priority 2010, dated 2015)
